Laboratory results as given in ChEMBL document CHEMBL5380831, “Azolylpyrimidinediols as Novel Structural Scaffolds of DNA-Groove Binders against Intractable Acinetobacter baumannii” (J Med Chem, 2023).
Converted amounts (≈) assume the structure as drawn.

What was measured:
Type in all cases: functional
Acinetobacter baumannii = assay: Antibacterial activity against Acinetobacter baumannii assessed as bacterial growth inhibition incubated for 24 hrs by broth microdilution method
Staphylococcus aureus [1] = assay: Antibacterial activity against Staphylococcus aureus ATCC 25923 assessed as bacterial growth inhibition incubated for 24 hrs by broth microdilution method
Staphylococcus aureus [2] = assay: Antibacterial activity against methicillin-resistant Staphylococcus aureus assessed as bacterial growth inhibition incubated for 24 hrs by broth microdilution method
Escherichia coli [3] = assay: Antibacterial activity against Escherichia coli assessed as bacterial growth inhibition incubated for 24 hrs by broth microdilution method
Klebsiella pneumoniae = assay: Antibacterial activity against Klebsiella pneumoniae assessed as bacterial growth inhibition incubated for 24 hrs by broth microdilution method
Pseudomonas aeruginosa [4] = assay: Antibacterial activity against Pseudomonas aeruginosa assessed as bacterial growth inhibition incubated for 24 hrs by broth microdilution method
Pseudomonas aeruginosa [5] = assay: Antibacterial activity against Pseudomonas aeruginosa ATCC 27853 assessed as bacterial growth inhibition incubated for 24 hrs by broth microdilution method
Staphylococcus aureus [6] = assay: Antibacterial activity against Staphylococcus aureus assessed as bacterial growth inhibition incubated for 24 hrs by broth microdilution method
Staphylococcus aureus [7] = assay: Antibacterial activity against Staphylococcus aureus ATCC 29213 assessed as bacterial growth inhibition incubated for 24 hrs by broth microdilution method
Escherichia coli [8] = assay: Antibacterial activity against Escherichia coli ATCC 25922 assessed as bacterial growth inhibition incubated for 24 hrs by broth microdilution method
Enterococcus faecalis = assay: Antibacterial activity against Enterococcus faecalis assessed as bacterial growth inhibition incubated for 24 hrs by broth microdilution method

Row | SMILES | MIC (Acinetobacter baumannii) [µM] | MIC (Staphylococcus aureus [1]) [µM] | MIC (Staphylococcus aureus [2]) [µM] | MIC (Escherichia coli [3]) [µM] | MIC (Klebsiella pneumoniae) [µM] | MIC (Pseudomonas aeruginosa [4]) [µM] | MIC (Pseudomonas aeruginosa [5]) [µM] | MIC (Staphylococcus aureus [6]) [µM] | MIC (Staphylococcus aureus [7]) [µM] | MIC (Escherichia coli [8]) [µM] | MIC (Enterococcus faecalis) [µM]
1 | O=S(=O)(c1ccc(F)cc1)N1CCN(c2nccc(-n3cncn3)n2)CC1 | 165 (≈ 64.3 µg/mL) | 165 (≈ 64.3 µg/mL) | 658 (≈ 256 µg/mL) | 658 (≈ 256 µg/mL) | 658 (≈ 256 µg/mL) | 329 (≈ 128 µg/mL) | 658 (≈ 256 µg/mL) | 658 (≈ 256 µg/mL) | 658 (≈ 256 µg/mL) | 658 (≈ 256 µg/mL) | 658 (≈ 256 µg/mL)
2 | CCCc1nccn1-c1ccnc(N(CCO)CCO)n1 | 879 (≈ 256 µg/mL) | 879 (≈ 256 µg/mL) | 879 (≈ 256 µg/mL) | 879 (≈ 256 µg/mL) | 379 (≈ 110 µg/mL) | 879 (≈ 256 µg/mL) | 879 (≈ 256 µg/mL) | 879 (≈ 256 µg/mL) | 879 (≈ 256 µg/mL) | 879 (≈ 256 µg/mL) | 879 (≈ 256 µg/mL)
3 | Cc1ncc([N+](=O)[O-])n1-c1nccc(N(CCO)CCO)n1 | 415 (≈ 128 µg/mL) | 831 (≈ 256 µg/mL) | 831 (≈ 256 µg/mL) | 415 (≈ 128 µg/mL) | 415 (≈ 128 µg/mL) | 415 (≈ 128 µg/mL) | 415 (≈ 128 µg/mL) | 831 (≈ 256 µg/mL) | 831 (≈ 256 µg/mL) | 1660 (≈ 512 µg/mL) | 831 (≈ 256 µg/mL)
4 | CC(=O)N1CCN(c2nccc(-n3cncn3)n2)CC1 | 937 (≈ 256 µg/mL) | 937 (≈ 256 µg/mL) | 469 (≈ 128 µg/mL) | 937 (≈ 256 µg/mL) | 4 (≈ 1.09 µg/mL) | 469 (≈ 128 µg/mL) | 937 (≈ 256 µg/mL) | 937 (≈ 256 µg/mL) | 937 (≈ 256 µg/mL) | 4 (≈ 1.09 µg/mL) | 937 (≈ 256 µg/mL)
5 | CCc1nccn1-c1ccnc(N(CCO)CCO)n1 | 924 (≈ 256 µg/mL) | 924 (≈ 256 µg/mL) | 924 (≈ 256 µg/mL) | 924 (≈ 256 µg/mL) | 1850 (≈ 512 µg/mL) | 924 (≈ 256 µg/mL) | 924 (≈ 256 µg/mL) | 924 (≈ 256 µg/mL) | 924 (≈ 256 µg/mL) | 924 (≈ 256 µg/mL) | 924 (≈ 256 µg/mL)
6 | Cc1cn(-c2ccnc(N(CCO)CCO)n2)cn1 | 973 (≈ 256 µg/mL) | 973 (≈ 256 µg/mL) | 973 (≈ 256 µg/mL) | 973 (≈ 256 µg/mL) | 973 (≈ 256 µg/mL) | 973 (≈ 256 µg/mL) | 973 (≈ 256 µg/mL) | 973 (≈ 256 µg/mL) | 973 (≈ 256 µg/mL) | 1950 (≈ 512 µg/mL) | 973 (≈ 256 µg/mL)
7 | O=C(CCl)N1CCN(c2nccc(-n3cncn3)n2)CC1 | 208 (≈ 64 µg/mL) | 208 (≈ 64 µg/mL) | 104 (≈ 32 µg/mL) | 208 (≈ 64 µg/mL) | 104 (≈ 32 µg/mL) | 104 (≈ 32 µg/mL) | 208 (≈ 64 µg/mL) | 417 (≈ 128 µg/mL) | 104 (≈ 32 µg/mL) | 104 (≈ 32 µg/mL) | 417 (≈ 128 µg/mL)
8 | O=c1ccc2c(CN3CCN(c4nccc(-n5cncn5)n4)CC3)cc(O)cc2o1 | 158 (≈ 64.1 µg/mL) | 316 (≈ 128 µg/mL) | 316 (≈ 128 µg/mL) | 632 (≈ 256 µg/mL) | 632 (≈ 256 µg/mL) | 316 (≈ 128 µg/mL) | 632 (≈ 256 µg/mL) | 316 (≈ 128 µg/mL) | 632 (≈ 256 µg/mL) | 633 (≈ 257 µg/mL) | 316 (≈ 128 µg/mL)
9 | CN(C)c1nccc(-n2cncn2)n1 | 1350 (≈ 256 µg/mL) | 1350 (≈ 256 µg/mL) | 1350 (≈ 256 µg/mL) | 1350 (≈ 256 µg/mL) | 1350 (≈ 256 µg/mL) | 337 (≈ 64.1 µg/mL) | 1350 (≈ 256 µg/mL) | 1350 (≈ 256 µg/mL) | 1350 (≈ 256 µg/mL) | 673 (≈ 128 µg/mL) | 1350 (≈ 256 µg/mL)
10 | O=C(CCCCl)N1CCN(c2nccc(-n3cncn3)n2)CC1 | 382 (≈ 128 µg/mL) | 382 (≈ 128 µg/mL) | 382 (≈ 128 µg/mL) | 382 (≈ 128 µg/mL) | 382 (≈ 128 µg/mL) | 764 (≈ 257 µg/mL) | 382 (≈ 128 µg/mL) | 764 (≈ 257 µg/mL) | 764 (≈ 257 µg/mL) | 382 (≈ 128 µg/mL) | 382 (≈ 128 µg/mL)
11 | CC(C)c1nccn1-c1nccc(N(CCO)CCO)n1 | 440 (≈ 128 µg/mL) | 440 (≈ 128 µg/mL) | 1760 (≈ 512 µg/mL) | 879 (≈ 256 µg/mL) | 879 (≈ 256 µg/mL) | 440 (≈ 128 µg/mL) | 879 (≈ 256 µg/mL) | 879 (≈ 256 µg/mL) | 879 (≈ 256 µg/mL) | 1760 (≈ 512 µg/mL) | 1790 (≈ 521 µg/mL)
12 | Cc1nccn1-c1nccc(N(CCO)CCO)n1 | 973 (≈ 256 µg/mL) | 973 (≈ 256 µg/mL) | 973 (≈ 256 µg/mL) | 973 (≈ 256 µg/mL) | 973 (≈ 256 µg/mL) | 973 (≈ 256 µg/mL) | 973 (≈ 256 µg/mL) | 973 (≈ 256 µg/mL) | 973 (≈ 256 µg/mL) | 1950 (≈ 512 µg/mL) | 973 (≈ 256 µg/mL)
13 | CCCc1nccn1-c1nccc(N(CCO)CCO)n1 | 879 (≈ 256 µg/mL) | 879 (≈ 256 µg/mL) | 879 (≈ 256 µg/mL) | 879 (≈ 256 µg/mL) | 879 (≈ 256 µg/mL) | 879 (≈ 256 µg/mL) | 879 (≈ 256 µg/mL) | 879 (≈ 256 µg/mL) | 879 (≈ 256 µg/mL) | 879 (≈ 256 µg/mL) | 879 (≈ 256 µg/mL)
14 | OCCN(CCO)c1nccc(-n2cnc3ccccc32)n1 | 856 (≈ 256 µg/mL) | 107 (≈ 32 µg/mL) | 856 (≈ 256 µg/mL) | 214 (≈ 64.1 µg/mL) | 428 (≈ 128 µg/mL) | 214 (≈ 64.1 µg/mL) | 107 (≈ 32 µg/mL) | 214 (≈ 64.1 µg/mL) | 856 (≈ 256 µg/mL) | 856 (≈ 256 µg/mL) | 107 (≈ 32 µg/mL)
15 | O=C(c1ccccc1)N1CCN(c2nccc(-n3cncn3)n2)CC1 | 764 (≈ 256 µg/mL) | 764 (≈ 256 µg/mL) | 764 (≈ 256 µg/mL) | 764 (≈ 256 µg/mL) | 6 (≈ 2.01 µg/mL) | 382 (≈ 128 µg/mL) | 764 (≈ 256 µg/mL) | 764 (≈ 256 µg/mL) | 764 (≈ 256 µg/mL) | 6 (≈ 2.01 µg/mL) | 764 (≈ 256 µg/mL)
